Results as given in ChEMBL document CHEMBL1201862, “PubChem BioAssay data set” (2004).
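Compound exposure: 48 hours, 5 concentrations, 96-well plates. Abbreviation: GI50, concentration required for 50% inhibition of growth.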 The source made the active and inactive calls. Rule as the data show it: active = GI50 up to about 1.1 µM and inactive = higher.

Experiments:
Test in all cases: NCI tumour cell line growth inhibition, 48 h
SF-295 = test system: SF-295
SK-MEL-2 = test system: SK-MEL-2
MOLT-4 = test system: MOLT-4
UO-31 = test system: UO-31
SW-620 = test system: SW-620
U-251 = test system: U-251
SNB-19 = test system: SNB-19
UACC-62 = test system: UACC-62
K562 = test system: K562
A549 = test system: A549
HCT-116 = test system: HCT-116
Malme-3M = test system: Malme-3M
NCI-H23 = test system: NCI-H23
OVCAR-5 = test system: OVCAR-5
COLO 205 = test system: COLO 205
RXF 393 = test system: RXF 393
HL-60 = test system: HL-60
SK-MEL-28 = test system: SK-MEL-28
SK-OV-3 = test system: SK-OV-3
OVCAR-8 = test system: OVCAR-8

Compound	GI50 (SF-295)	GI50 (SK-MEL-2)	GI50 (MOLT-4)	GI50 (UO-31)	GI50 (SW-620)	GI50 (U-251)	GI50 (SNB-19)	GI50 (UACC-62)	GI50 (K562)	GI50 (A549)	GI50 (HCT-116)	GI50 (Malme-3M)	GI50 (NCI-H23)	GI50 (OVCAR-5)	GI50 (COLO 205)	GI50 (RXF 393)	GI50 (HL-60)	GI50 (SK-MEL-28)	GI50 (SK-OV-3)	GI50 (OVCAR-8)
CON(C)C(C#N)=C(C#N)C#N	> 10 µM (inactive)	> 10 µM (inactive)	> 10 µM (inactive)	> 10 µM (inactive)	> 10 µM (inactive)	> 10 µM (inactive)	> 10 µM (inactive)	> 10 µM (inactive)	> 10 µM (inactive)	> 10 µM (inactive)	> 10 µM (inactive)	> 10 µM (inactive)	> 10 µM (inactive)	> 10 µM (inactive)	> 10 µM (inactive)	> 10 µM (inactive)	> 10 µM (inactive)	> 10 µM (inactive)	> 10 µM (inactive)	> 10 µM (inactive)
CC1NC(=O)C(C)C(c2ccccc2)N(N=O)C1c1ccccc1 (stereo not given)	> 34.7 µM (inactive)	> 100 µM (inactive)	36.8 µM (inactive)	> 92.5 µM (inactive)	> 100 µM (inactive)	> 100 µM (inactive)	> 76.9 µM (inactive)	> 88.5 µM (inactive)	33 µM (inactive)	> 100 µM (inactive)	> 59 µM (inactive)	> 100 µM (inactive)	> 100 µM (inactive)	> 100 µM (inactive)	> 63.4 µM (inactive)	60.7 µM (inactive)	22.9 µM (inactive)	> 100 µM (inactive)	28.2 µM (inactive)	> 100 µM (inactive)
Cn1c2ccc([N+](=O)[O-])cc2c(=O)n1Cc1ccccc1F	54.1 µM (inactive)	53.8 µM (inactive)	45.8 µM (inactive)	37.9 µM (inactive)	> 100 µM (inactive)	37.7 µM (inactive)	33.5 µM (inactive)	48.5 µM (inactive)	38.5 µM (inactive)	44.3 µM (inactive)	29.1 µM (inactive)	46.8 µM (inactive)	48 µM (inactive)	46.3 µM (inactive)	39.6 µM (inactive)	61 µM (inactive)	64.4 µM (inactive)	47.5 µM (inactive)	> 100 µM (inactive)	28.6 µM (inactive)
ClCc1ccc2ccc3ccc(CCl)nc3c2n1	2.31 µM (inactive)	1.77 µM (inactive)	1.73 µM (inactive)	1.69 µM (inactive)	2.5 µM (inactive)	1.93 µM (inactive)	11.9 µM (inactive)	1.34 µM (inactive)	3.18 µM (inactive)	4.76 µM (inactive)	1.69 µM (inactive)	1.92 µM (inactive)	2.9 µM (inactive)	2.85 µM (inactive)	1.71 µM (inactive)	1.72 µM (inactive)	1.8 µM (inactive)	1.83 µM (inactive)	8.89 µM (inactive)	3.36 µM (inactive)
C=C1C(=O)OC2CC1CCC1(C)OC1CCC(C)=CCCC2(C)O (stereo not given)	16.8 µM (inactive)	6.12 µM (inactive)	1.87 µM (inactive)	9.04 µM (inactive)	1.12 µM (inactive)	11.8 µM (inactive)	14.1 µM (inactive)	3.4 µM (inactive)	1.83 µM (inactive)	8.36 µM (inactive)	2.72 µM (inactive)	3.76 µM (inactive)	1.79 µM (inactive)	10 µM (inactive)	1.89 µM (inactive)	1.2 µM (inactive)	0.927 µM (active)	4.06 µM (inactive)	16.7 µM (inactive)	2.33 µM (inactive)
CC1=C2C3OC(=O)C(C)C3CCC2(C)C=C/C1=N\c1ccccc1 (stereo not given)	> 100 µM (inactive)	> 100 µM (inactive)	> 100 µM (inactive)	> 100 µM (inactive)	> 100 µM (inactive)	> 100 µM (inactive)	> 100 µM (inactive)	> 100 µM (inactive)	> 100 µM (inactive)	> 100 µM (inactive)	> 100 µM (inactive)	> 100 µM (inactive)	> 100 µM (inactive)	> 100 µM (inactive)	> 100 µM (inactive)	> 100 µM (inactive)	> 100 µM (inactive)	> 100 µM (inactive)	> 100 µM (inactive)	> 100 µM (inactive)
Cc1cc(C(=O)NCCN(C)C)c2nc3ccccc3cc2c1	1.27 µM (inactive)	2.69 µM (inactive)	0.381 µM (active)	1.42 µM (inactive)	0.889 µM (active)	2.69 µM (inactive)	2.01 µM (inactive)	1.52 µM (inactive)	2.44 µM (inactive)	0.867 µM (active)	0.904 µM (active)	1.6 µM (inactive)	2.3 µM (inactive)	1.98 µM (inactive)	1.1 µM (active)	1.63 µM (inactive)	0.871 µM (active)	3.15 µM (inactive)	2.16 µM (inactive)	1.25 µM (inactive)
CN(C)C(=O)NCCN1CCCCCc2ccccc21	> 100 µM (inactive)	89.7 µM (inactive)	93.1 µM (inactive)	> 100 µM (inactive)	> 100 µM (inactive)	> 100 µM (inactive)	> 100 µM (inactive)	> 100 µM (inactive)	> 100 µM (inactive)	> 100 µM (inactive)	> 100 µM (inactive)	> 100 µM (inactive)	76.4 µM (inactive)	> 100 µM (inactive)	> 100 µM (inactive)	> 100 µM (inactive)	31.3 µM (inactive)	> 100 µM (inactive)	> 100 µM (inactive)	> 100 µM (inactive)
O=C1C(Cl)N(c2ccccc2[N+](=O)[O-])C1c1c[nH]c2ccccc12 (stereo not given)	> 100 µM (inactive)	> 100 µM (inactive)	> 100 µM (inactive)	54.6 µM (inactive)	> 100 µM (inactive)	> 100 µM (inactive)	> 100 µM (inactive)	> 100 µM (inactive)	> 100 µM (inactive)	> 100 µM (inactive)	> 100 µM (inactive)	94.4 µM (inactive)	> 100 µM (inactive)	1.36 µM (inactive)	> 100 µM (inactive)	> 100 µM (inactive)	> 100 µM (inactive)	> 100 µM (inactive)	> 100 µM (inactive)	> 100 µM (inactive)
O=C1C=CC(=O)c2c(Cl)ccc(O)c21	> 42.3 µM (inactive)	37.8 µM (inactive)	4.54 µM (inactive)	> 100 µM (inactive)	11.6 µM (inactive)	> 57 µM (inactive)	> 100 µM (inactive)	16.8 µM (inactive)	3.48 µM (inactive)	> 81.8 µM (inactive)	9.79 µM (inactive)	18.7 µM (inactive)	12.4 µM (inactive)	> 54.1 µM (inactive)	13.1 µM (inactive)	16 µM (inactive)	2.96 µM (inactive)	18.8 µM (inactive)	> 100 µM (inactive)	20.4 µM (inactive)
